# Results published in PubChem BioAssay AID210 (DTP/NCI, 2004).
# Several values for one entry are separate records, joined by “and”; a condition that tells them apart may be missing. Identical values can stand only once. Inconclusive results and toxic doses are left out.
# Test system: CD2F1 mice, ip Colon 26 adenocarcinoma, median survival T/C
# Test: NCI In Vivo Anticancer Drug Screen. Data for tumor model Colon 26 Adenocarcinoma (intraperitoneal) in CD2F1 (CDF1) mice
# Conditions: endpoint: median survival time, higher = longer survival
# Experimental: The antitumor activity of compounds was measured in mice bearing transplantable tumors. Survival or tumor size were measured and the results are expressed as the measurement made in the treated group (T) divided by the measurement made in the vehicle treated control group (C). The tumor model used in this assay is Colon 26 Adenocarcinoma (intraperitoneal) in CD2F1 (CDF1) mice
# [1] = dose: 12.5 mg/kg/injection, schedule: Q04DX003 (ip), vehicle: saline with Tween-80
smiles,measurement,setting,value
Cc1ccc(NC(=O)Oc2ccc(Br)cc2Br)c([N+](=O)[O-])c1,T/C,[1],97 % of control
same,T/C,"dose: 25.0 mg/kg/injection, schedule: Q04DX003 (ip), vehicle: saline with Tween-80",100 % of control
same,T/C,"dose: 50.0 mg/kg/injection, schedule: Q04DX003 (ip), vehicle: saline with Tween-80",100 % of control
same,T/C,"dose: 100.0 mg/kg/injection, schedule: Q04DX003 (ip), vehicle: saline with Tween-80",107 % of control
same,T/C,"dose: 200.0 mg/kg/injection, schedule: Q04DX003 (ip), vehicle: saline with Tween-80",117 % of control
same,T/C,"dose: 400.0 mg/kg/injection, schedule: Q04DX003 (ip), vehicle: saline with Tween-80",123 % of control
CC[N+](CC)(CC)CC,T/C,"dose: 1.56 mg/kg/injection, schedule: Q04DX003 (ip), vehicle: saline with Tween-80",114 % of control
same,T/C,"dose: 3.12 mg/kg/injection, schedule: Q04DX003 (ip), vehicle: saline with Tween-80",107 % of control and 113 % of control
same,T/C,"dose: 6.25 mg/kg/injection, schedule: Q04DX003 (ip), vehicle: saline with Tween-80",111 % of control
same,T/C,[1],175 % of control
same,T/C,"dose: 12.5 mg/kg/injection, schedule: Q04DX003 (oral), vehicle: saline with Tween-80",109 % of control
same,T/C,"dose: 25.0 mg/kg/injection, schedule: Q04DX003 (oral), vehicle: saline with Tween-80",105 % of control
same,T/C,"dose: 50.0 mg/kg/injection, schedule: Q04DX003 (oral), vehicle: saline with Tween-80",104 % of control
same,T/C,"dose: 100.0 mg/kg/injection, schedule: Q04DX003 (oral), vehicle: saline with Tween-80",94 % of control
O=C1c2ccccc2C(=O)c2c(NCCNCCO)ccc(O)c21,T/C,"dose: 1.88 mg/kg/injection, schedule: Q01DX009 (ip), vehicle: acid diluted with saline",162 % of control
same,T/C,"dose: 2.0 mg/kg/injection, schedule: Q01DX009 (ip), vehicle: acid diluted with saline",152 % of control
same,T/C,"dose: 3.75 mg/kg/injection, schedule: Q01DX009 (ip), vehicle: acid diluted with saline",177 % of control
same,T/C,"dose: 4.0 mg/kg/injection, schedule: Q01DX009 (ip), vehicle: acid diluted with saline",212 % of control
same,T/C,"dose: 7.5 mg/kg/injection, schedule: Q01DX009 (ip), vehicle: acid diluted with saline",196 % of control
same,T/C,"dose: 8.0 mg/kg/injection, schedule: Q01DX009 (ip), vehicle: acid diluted with saline",245 % of control
same,T/C,"dose: 15.0 mg/kg/injection, schedule: Q01DX009 (ip), vehicle: acid diluted with saline",182 % of control
same,T/C,"dose: 16.0 mg/kg/injection, schedule: Q01DX009 (ip), vehicle: acid diluted with saline",263 % of control
CSc1cc(=O)n2c3ccccc3c3ccnc1c32,T/C,"dose: 2.5 mg/kg/injection, schedule: Q04DX003 (ip), vehicle: saline with Tween-80",100 % of control
same,T/C,"dose: 5.0 mg/kg/injection, schedule: Q04DX003 (ip), vehicle: saline with Tween-80",115 % of control
same,T/C,"dose: 20.0 mg/kg/injection, schedule: Q04DX003 (ip), vehicle: saline with Tween-80",151 % of control
COC12[C@@H]3N[C@@H]3CN1C1=C(C(=O)C(NCCSSCCNC3=C(C)C(=O)C4=C(C3=O)C(COC(N)=O)[C@]3(OC)C5N[C@@H]5CN43)=C(C)C1=O)[C@@H]2COC(N)=O (stereo partly specified),T/C,"dose: 1.0 mg/kg/injection, schedule: Q01DX004 (ip), vehicle: other",94 % of control
same,T/C,"dose: 2.0 mg/kg/injection, schedule: Q01DX004 (ip), vehicle: other",99 % of control
same,T/C,"dose: 2.0 mg/kg/injection, schedule: Q03DX002 (ip), vehicle: other",100 % of control
same,T/C,"dose: 4.0 mg/kg/injection, schedule: Q01DX004 (ip), vehicle: other",107 % of control
same,T/C,"dose: 4.0 mg/kg/injection, schedule: Q03DX002 (ip), vehicle: other",117 % of control
same,T/C,"dose: 6.0 mg/kg/injection, schedule: Q01DX004 (ip), vehicle: other",101 % of control
same,T/C,"dose: 6.0 mg/kg/injection, schedule: Q01DX005 (ip), vehicle: other",96 % of control
same,T/C,"dose: 9.0 mg/kg/injection, schedule: Q01DX005 (ip), vehicle: other",96 % of control
same,T/C,"dose: 9.0 mg/kg/injection, schedule: Q03DX002 (ip), vehicle: other",110 % of control
same,T/C,"dose: 15.0 mg/kg/injection, schedule: Q01DX005 (ip), vehicle: other",106 % of control
CO[C@@]12[C@H](COC(N)=O)C3=C(C(=O)C(C)=C(N)C3=O)N1C[C@@H]1N[C@@H]12,T/C,"dose: 1.0 mg/kg/injection, schedule: Q01DX004 (ip), vehicle: saline",122 % of control
same,T/C,"dose: 1.0 mg/kg/injection, schedule: Q03DX002 (ip), vehicle: saline",120 % of control
same,T/C,"dose: 2.0 mg/kg/injection, schedule: Q01DX005 (ip), vehicle: saline",96 % of control
same,T/C,"dose: 2.0 mg/kg/injection, schedule: Q03DX002 (ip), vehicle: saline",113 % of control
same,T/C,"dose: 2.0 mg/kg/injection, schedule: Q07DX003 (ip), vehicle: Klucel (hydroxypropylcellulose) (HPC)",195 % of control
same,T/C,"dose: 2.0 mg/kg/injection, schedule: Q07DX003 (ip), vehicle: saline",152 % of control
same,T/C,"dose: 2.9 mg/kg/injection, schedule: Q07DX003 (ip), vehicle: Klucel (hydroxypropylcellulose) (HPC)",183 % of control
same,T/C,"dose: 2.9 mg/kg/injection, schedule: Q07DX003 (ip), vehicle: saline",169 % of control
same,T/C,"dose: 3.0 mg/kg/injection, schedule: Q01DX004 (ip), vehicle: saline",114 % of control
same,T/C,"dose: 3.0 mg/kg/injection, schedule: Q01DX005 (ip), vehicle: saline",110 % of control
same,T/C,"dose: 3.0 mg/kg/injection, schedule: Q03DX002 (ip), vehicle: saline",117 % of control
same,T/C,"dose: 4.2 mg/kg/injection, schedule: Q07DX003 (ip), vehicle: Klucel (hydroxypropylcellulose) (HPC)",223 % of control
same,T/C,"dose: 4.2 mg/kg/injection, schedule: Q07DX003 (ip), vehicle: saline",190 % of control
same,T/C,"dose: 4.5 mg/kg/injection, schedule: Q01DX005 (ip), vehicle: saline",114 % of control
same,T/C,"dose: 4.5 mg/kg/injection, schedule: Q03DX002 (ip), vehicle: saline",110 % of control
same,T/C,"dose: 6.0 mg/kg/injection, schedule: Q01DX005 (ip), vehicle: saline",121 % of control
same,T/C,"dose: 6.0 mg/kg/injection, schedule: Q07DX003 (ip), vehicle: Klucel (hydroxypropylcellulose) (HPC)",87 % of control
same,T/C,"dose: 6.0 mg/kg/injection, schedule: Q07DX003 (ip), vehicle: saline",231 % of control
COCC1OC(OC2C3=C(C(C)C)CCC3(C)/C=C3\C(CCC3(O)COC)C(C)C2O)C(O)C2OC3OC12OC3(C)C1CO1 (stereo unspecified),T/C,"dose: 0.78 mg/kg/injection, schedule: Q04DX002 (ip), vehicle: Klucel (hydroxypropylcellulose) (HPC)",105 % of control and 94 % of control
same,T/C,"dose: 1.56 mg/kg/injection, schedule: Q04DX002 (ip), vehicle: Klucel (hydroxypropylcellulose) (HPC)",104 % of control and 106 % of control
same,T/C,"dose: 3.12 mg/kg/injection, schedule: Q04DX002 (ip), vehicle: Klucel (hydroxypropylcellulose) (HPC)",109 % of control and 95 % of control
same,T/C,"dose: 6.25 mg/kg/injection, schedule: Q04DX002 (ip), vehicle: Klucel (hydroxypropylcellulose) (HPC)",116 % of control and 89 % of control and 100 % of control
same,T/C,"dose: 12.5 mg/kg/injection, schedule: Q04DX002 (ip), vehicle: Klucel (hydroxypropylcellulose) (HPC)",103 % of control and 104 % of control and 98 % of control
COc1cccc2c1C(=O)c1c(O)c3c(c(O)c1C2=O)C[C@@](O)(C(C)=O)C[C@@H]3OC1CC(N)C(O)C(C)O1 (stereo partly specified),T/C,"dose: 1.8 mg/kg/injection, schedule: Q04DX003 (ip), vehicle: water",114 % of control
same,T/C,"dose: 2.0 mg/kg/injection, schedule: Q04DX003 (ip), vehicle: saline",158 % of control
same,T/C,"dose: 2.0 mg/kg/injection, schedule: Q07DX002 (iv), vehicle: saline",113 % of control
same,T/C,"dose: 2.16 mg/kg/injection, schedule: Q04DX003 (ip), vehicle: water",119 % of control
same,T/C,"dose: 3.4 mg/kg/injection, schedule: Q07DX002 (iv), vehicle: saline",106 % of control
same,T/C,"dose: 3.6 mg/kg/injection, schedule: Q04DX003 (ip), vehicle: water",103 % of control
same,T/C,"dose: 4.0 mg/kg/injection, schedule: Q04DX003 (ip), vehicle: saline",115 % of control
same,T/C,"dose: 5.7 mg/kg/injection, schedule: Q07DX002 (iv), vehicle: saline",104 % of control
same,T/C,"dose: 9.5 mg/kg/injection, schedule: Q07DX002 (iv), vehicle: saline",115 % of control
N=C(N)Sc1ccccn1,T/C,"dose: 12.5 mg/kg/injection, schedule: Q04DX003 (ip), vehicle: saline",94 % of control
same,T/C,"dose: 25.0 mg/kg/injection, schedule: Q04DX003 (ip), vehicle: saline",101 % of control
same,T/C,"dose: 50.0 mg/kg/injection, schedule: Q04DX003 (ip), vehicle: saline",91 % of control
same,T/C,"dose: 100.0 mg/kg/injection, schedule: Q04DX003 (ip), vehicle: saline",91 % of control
Cc1ncc([N+](=O)[O-])n1CCO,T/C,"dose: 37.5 mg/kg/injection, schedule: Q04DX003 (ip), vehicle: Klucel (hydroxypropylcellulose) (HPC)",114 % of control
same,T/C,"dose: 75.0 mg/kg/injection, schedule: Q04DX003 (ip), vehicle: Klucel (hydroxypropylcellulose) (HPC)",118 % of control
same,T/C,"dose: 150.0 mg/kg/injection, schedule: Q04DX003 (ip), vehicle: Klucel (hydroxypropylcellulose) (HPC)",106 % of control
same,T/C,"dose: 300.0 mg/kg/injection, schedule: Q04DX003 (ip), vehicle: Klucel (hydroxypropylcellulose) (HPC)",109 % of control
same,T/C,"dose: 600.0 mg/kg/injection, schedule: Q04DX003 (ip), vehicle: Klucel (hydroxypropylcellulose) (HPC)",108 % of control
